Results taken from US20130011921A1, “METHOD FOR PRODUCTION OF ARTIFICIAL PLURIPOTENT STEM CELL” (SAITAMA MEDICAL UNIVERSITY, priority 2010, published 2013).
Entries after “also recorded” stand apart in the source; their conditions may differ.

Assays:
Nanog-GFP MEF [1] = assay: Induction of mouse iPS cells, Puro-resistant AP-positive colonies; type: cell-based
Experimental: (§1) For retroviral introduction, a retroviral vector expressing each pluripotency inducer (Oct-3/4, Sox2, KLF4, and c-Myc) was introduced into packaging cells, PLAT-E cells (Kitamura T, et al. (2003) Exp Hematol 31:1007-1014). Culture supernatants of PLAT-E cells were each recovered two days after gene introduction, and filtered through a 0.45 μm cellulose acetate. Polybrene was then added to a final concentration […], an equal amount of each culture supernatant was mixed, and the mixture was added to Nanog-GFP MEF (Okita K, Ichisaka T, Yamanaka S. (2007) nature 448:313-317) for viral infection. Nanog-GFP MEF is a cell being a mouse embryonic fibroblast (MEF) to which a BAC was introduced, wherein a GFP-IRES-Puro^r cassette is inserted into the BAC carrying the mouse Nanog gene.
On Day 4 after retroviral infection, these were seeded on STO feeder cells with suppressed proliferation ability from mitomycin C (SIGMA: M4287) treatment (seeded at 2×10^3 cells/ml for cells infected with 4F (c-Myc), 3.5×10^4 cells/ml for 3F), and on the next day cultured in mouse ES cell medium (Nishimoto M, et al. (1999) Mol Cell Biol 19:5453-5465). Thereafter the medium was replaced every two days, replaced with puromycin (Puro)-containing mouse ES cell medium (Puro to a final concentration of […]) on Day 17 after infection, and cultured for eight more days. Alkaline phosphatase (AP) staining was then performed. Nicotinamide was added simultaneously with retroviral infection to a final concentration 4 mM, and then added at the same concentration for every medium exchange.
In order to investigate the optimal treatment time of nicotinamide, nicotinamide was added under each conditions of until Day 24 after retroviral infection (Nam 0-24d), until Day 4 after retroviral infection (Nam 0-4d), and from Day 4 to Day 24 after retroviral infection (Nam 4-24d), and iPS cells were induced by 4F (c-Myc). Experimental method other than the […] treatment time was in accordance with Test 1.
Consequently, resveratrol which activates sirtuin (SIRT1) was added to the medium instead of nicotinamide to investigate the induction effect of iPS cells. Experimental method was in accordance with Test 2, except that resveratrol (Res) was added to the medium to a final concentration 100 μM.

Nanog-GFP MEF [2] = assay: Inspection on Day 4 after retroviral infection (colonies, cell count, AP staining, undifferentiated markers); type: cell-based, mouse
Experimental: As a result, iPS cell-like colonies were recognized in the Nam treatment group, but not in the untreated control group. (FIGS. 4 and 5A). Next, in order to investigate the influence of nicotinamide on Day 4 after infection, the number of cells was counted and AP staining was performed. […] Further, as a result of investigating the expression of various undifferentiated markers, it became clear that the expression of undifferentiated markers was increased compared to the non-treatment group due to nicotinamide treatment (data not shown). Accordingly, it became clear that iPS cell induction was already promoted on Day 4 after infection by nicotinamide treatment.

human fibroblasts = assay: Induction of human iPS cells in the presence of nicotinamide, AP-positive colonies; type: cell-based
Experimental: For retroviral introduction, retroviral vectors expressing each pluripotency inducer (Oct-3/4, Sox2, KLF4, and c-Myc) were introduced into packaging cells, PLAT-GP cells (Morita S, et al. (2000) Gene Therapy 7:1063-1066). Culture supernatants of PLAT-GP cells were each recovered two days after gene introduction, and filtered through a 0.45 μm cellulose acetate. Polybrene was then added to a final concentration […], an equal amount of each culture supernatant was mixed, and the mixture was added to human fibroblasts for viral infection. These were seeded on feeder cells on Day 6 after retroviral infection (4F (c-Myc): 2.5×10^4; 4F (L-Myc): 5.0×10^4), and cultured in human ES cell medium on the following day (Takahashi K, et al (2007) Cell 131:861-872). Thereafter the medium was exchanged every two days, and cultured until thirty days after infection. Alkaline phosphatase (AP) staining was then performed, and the number of AP-positive colonies was counted. Nicotinamide was added simultaneously with retroviral infection to a final concentration 4 mM, and then added at the same concentration for every medium exchange until Day 6 after infection. The control zone was cultured to thirty days after infection without adding nicotinamide.

Nanog-GFP MEF [3] = assay: 2i method timing and combination with nicotinamide, Puro-resistant AP-positive colonies; type: cell-based, mouse
Experimental: Nanog-GFP MEF was subjected to forced expression of 4F(c-Myc) retrovirally. These were seeded on feeder cells on Day 4 after retroviral infection, and cultured in mouse ES cell medium from the following day until replaced with the 2i medium. Culturing in the 2i medium was initiated on (1) Day 5, (2) Day 7, (3) Day 9, (4) Day 11, (5) Day 13, and (6) Day 15 after retroviral infection, and continued until Day 17 after infection. From Day 17 after infection, drug selection by Puro was performed for eight days, and then AP staining was performed. […] Next, in order to compare when the nicotinamide treatment is performed simultaneously with retroviral infection and when it is performed after one day post infection, investigation was performed in accordance with the conditions of Test 5 (1).

Nanog-GFP MEF [4] = assay: GFP observation of induced mouse iPS cells with a fluorescence microscope; type: cell-based; conditions: 4F (c-Myc)
Experimental: as §1

Nanog-GFP MEF [5] = assay: Induction of mouse iPS cells in the presence of MEK inhibitor and GSK-3 inhibitor (2i method), fluorescence microscope; type: cell-based; conditions: 4F (c-Myc); nicotinamide treatment followed by 2i method; FIGS. 7C and 7D
Experimental: Nanog-GFP MEF was subjected to forced expression of 4F(c-Myc) retrovirally. These were seeded on feeder cells on Day 4 after retroviral infection, and cultured in mouse ES cell medium from the following day. This was replaced with a serum-free mouse ES cell medium comprising PD0325901 (1 μM) and CHIR99021 (3 μM) (2i medium) from Day 12 after infection. […] As the control zone, culturing was also performed in a serum-free mouse ES cell medium without PD0325901 and CHIR99021 from 12 days after infection for four days. It was confirmed that true iPS cells are increased by the 2i method (FIGS. 7A and 7B).

Oc1ccc(C=Cc2cc(O)cc(O)c2)cc1 [resveratrol]
number of Puro-resistant colonies (Nanog-GFP MEF [1]; 4F (c-Myc), resveratrol 100 μM added Day 0 to Day 4, vs DMSO control, FIG. 6): significantly decreased | number of Puro-resistant colonies (Nanog-GFP MEF [1]; 4F (c-Myc), resveratrol 100 μM added Day 0 to Day 17, vs DMSO control, FIG. 6): significantly decreased | number of Puro-resistant colonies (Nanog-GFP MEF [1]; 4F (c-Myc), resveratrol 100 μM added on Day 4 after introduction, FIG. 6): relatively large number

NC(=O)c1cccnc1 [nicotinamide]
number of AP-positive colonies (Nanog-GFP MEF [2]; Day 4 after infection, FIG. 5C): significant increase | number of cells (Nanog-GFP MEF [2]; Day 4 after infection, vs non-treatment cell group, FIG. 5B): increase | expression of undifferentiated markers (Nanog-GFP MEF [2]; Day 4 after infection, vs non-treatment group, data not shown): increased | iPS cell-like colonies (Nanog-GFP MEF [2]; Day 4 after retroviral infection, vs untreated control group, FIGS. 4 and 5A): recognized | induction efficiency of iPS cells (human fibroblasts; L-Myc as the Myc family gene, 4F (L-Myc), FIG. 10B): increased | induction efficiency of iPS cells (human fibroblasts; c-Myc as the Myc family gene, 4F (c-Myc), FIG. 10A): increased | number of AP-positive colonies (human fibroblasts; nicotinamide 4 mM until Day 6, counted thirty days after infection, vs zone without nicotinamide, FIG. 10): increased | number of Puro-resistant colonies (Nanog-GFP MEF [1]; 4F (c-Myc), nicotinamide added Day 0 to Day 4 (Nam 0-4d), FIG. 3): similarly significantly increased | number of Puro-resistant colonies (Nanog-GFP MEF [1]; 4F (c-Myc), nicotinamide added Day 0 to Day 24 (Nam 0-24d), FIG. 3): significantly increased | effect of increasing the number of Puro-resistant colonies (Nanog-GFP MEF [1]; 4F (c-Myc), nicotinamide added on or after Day 4 (Nam 4-24d), FIG. 3): barely obtained | increase in induction efficiency (Puro-resistant AP-positive colonies) (Nanog-GFP MEF [1]; cells infected with 3F (without c-Myc), nicotinamide 4 mM, FIG. 1C): not seen | number of colonies showing resistance to puromycin (Puro-resistant AP-positive colonies) (Nanog-GFP MEF [1]; cells infected with 4F (c-Myc), nicotinamide 4 mM from infection, at every medium exchange, FIG. 1A, 1B): significantly increased | proportion of true iPS cells (Nanog-GFP MEF [3]; nicotinamide 4 mM Day 0 to Day 4 plus 2i method as Test 5 (1), FIG. 9A): significantly increased | induction efficiency compared to the conventional method (Nanog-GFP MEF [3]; nicotinamide treatment combined with 2i method, FIG. 9): about 10 times | induction efficiency, nicotinamide Day 1 to Day 4 relative to Day 0 to Day 4 (Nanog-GFP MEF [3]; with 2i method as Test 5 (1), FIG. 9B): three-fold; also recorded: three times or more | GFP color development vs non-administration group (Nanog-GFP MEF [4]; after drug selection by Puro, FIG. 2 lower column): more intense color development | GFP color development vs nicotinamide-untreated control cells (Nanog-GFP MEF [4]; without drug selection by Puro, FIG. 2 upper column): slightly more intense color development | true iPS cells (Nanog-GFP MEF [5]): dramatic increase
